This note sets out measurements from patent US11285156B2, “Substituted piperazines as KRAS G12C inhibitors” (Amgen Inc., priority 2018, dated 2022).

Like-named read-outs stand apart in the source and are kept apart here.

The target of assay [1] is GDP-bound KRAS protein (aa 1-169), containing both G12C and C118A amino acid substitutions (Homo sapiens (Human), UniProt P01116, C118A/G12C). The assay can be described thus: Coupled nucleotide exchange assay (SOS-mediated nucleotide exchange, AlphaScreen). It is filed as biochemical. As to conditions: read-out: Coupled exchange IC50 (5 min; μM); 5 min compound pre-incubation. For orientation: Alpha assays give light when donor and acceptor beads are brought close together.
Chain of GDP-bound KRAS protein (aa 1-169), containing both G12C and C118A amino acid substitutions (P01116 other isoform, or with tags, fused parts or gaps G12C/C118A): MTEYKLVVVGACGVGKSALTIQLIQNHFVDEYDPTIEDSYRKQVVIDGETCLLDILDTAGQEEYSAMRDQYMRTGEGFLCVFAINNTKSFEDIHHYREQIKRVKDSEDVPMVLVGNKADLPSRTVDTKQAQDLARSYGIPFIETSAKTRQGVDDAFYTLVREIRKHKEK

For assay [2], the system named is Phosphorylation of ERK1/2 in A549 cells. The assay can be described thus: Phospho-ERK1/2 MSD assay in A549 cells. Format: cell-based. The conditions noted are these: read-out: p-ERK IC50 (2 h, A549; μM), 2 h compound treatment, A549 cells, EGF stimulated. Put shortly:
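MSD electrochemiluminescent read-out of phospho-ERK1/2 in RIPA lysates. Cells in RPMI 1640 with 10% FBS received titrated compound for 2 or 4 h, then 10 ng/mL EGF for 10 min before ice-cold PBS wash and lysis.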

The test system of assay [3] is Phosphorylation of ERK1/2 in MIA PaCa-2 cells. In words: Phospho-ERK1/2 MSD assay in MIA PaCa-2 cells. It is filed as cell-based. The conditions noted are these: read-out: p-ERK IC50 (2 h, MiaPaCa-2; μM), 2 h compound treatment, MIA PaCa-2 cells, EGF stimulated. Put shortly:
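Phospho-ERK1/2 measured by MSD electrochemiluminescence kit in RIPA lysates of MIA PaCa-2 cells. Cells were treated with compound titrations for 2 or 4 h at 37 °C, 5% CO2, followed by a 10 min pulse of 10 ng/mL EGF.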

Consider `C=CC(=O)N1C[C@H](C)N(c2nc(=O)n(-c3c(C)ccnc3C(C)C)c3nc(-c4cc(F)c(F)cc4O)c(Cl)cc23)C[C@H]1C` (atropisomer, axis not shown; (M)) [Example 124-13, (M)-6-Chloro-7-(4,5-difluoro-2-hydroxy-phenyl)-4-[(2S,5R)-2,5-dimethyl-4-prop-2-enoyl-piperazin-1-yl]-1-(2-isopropyl-4-methyl-3-pyridyl)pyrido[2,3-d]pyrimidin-2-one], for which the IC50 (in general, the concentration at which inhibition is half-maximal) is 0.068 µM in assay [1]; over 7.5 µM in assay [2] (Homo sapiens, A549, 2 h); 0.094 µM in assay [3] (Homo sapiens, MIA PaCa-2, 2 h).

As for `C=CC(=O)N1C[C@H](C)N(c2nc(=O)n(-c3c(C)ccnc3C(C)C)c3nc(-c4c(F)cccc4NC(C)=O)c(Cl)cc23)C[C@H]1C` (atropisomer, axis not shown; (M)) [Example 129-1, (M)-N-[2-[6-Chloro-4-[(2S,5R)-2,5-dimethyl-4-prop-2-enoyl-piperazin-1-yl]-1-(2-isopropyl-4-methyl-3-pyridyl)-2-oxo-pyrido[2,3-d]pyrimidin-7-yl]-3-fluoro-phenyl]acetamide], the IC50 was 0.054 µM in assay [1], over 7.5 µM in assay [2] and 0.124 µM in assay [3].

As for `C=CC(=O)N1C[C@H](C)N(c2nc(=O)n(-c3c(C)ccnc3C(C)C)c3nc(-c4c(F)cccc4NC(=O)C(F)(F)F)c(Cl)cc23)C[C@H]1C` (atropisomer, axis not shown; (M)) [Example 129-2, (M)-N-[2-[6-Chloro-4-[(2S,5R)-2,5-dimethyl-4-prop-2-enoyl-piperazin-1-yl]-1-(2-isopropyl-4-methyl-3-pyridyl)-2-oxo-pyrido[2,3-d]pyrimidin-7-yl]-3-fluoro-phenyl]-2,2,2-trifluoro-acetamide], the IC50 in assay [1] is 0.065 µM; in assay [2] (Homo sapiens, A549, 2 h), over 7.5 µM; in assay [3] (Homo sapiens, MIA PaCa-2, 2 h), 0.027 µM.

As for `C=CC(=O)N1C[C@H](C)N(c2nc(=O)n(-c3c(C)ccnc3C(C)C)c3nc(-c4c(F)cccc4NC(=O)CC)c(Cl)cc23)C[C@H]1C` (atropisomer, axis not shown; (M)) [Example 129-4, (M)-N-[2-[6-Chloro-4-[(2S,5R)-2,5-dimethyl-4-prop-2-enoyl-piperazin-1-yl]-1-(2-isopropyl-4-methyl-3-pyridyl)-2-oxo-pyrido[2,3-d]pyrimidin-7-yl]-3-fluoro-phenyl]propanamide], the IC50 in assay [1] was 0.053 µM; in assay [2] (Homo sapiens, A549, 2 h), over 7.5 µM; in assay [3] (Homo sapiens, MIA PaCa-2, 2 h), 0.058 µM.

On to `C=CC(=O)N1C[C@H](C)N(c2nc(=O)n(-c3c(C)ccnc3C(C)C)c3nc(-c4ccccc4NC(=O)C(F)(F)F)c(Cl)cc23)C[C@H]1C` (atropisomer, axis not shown; (M)) [Example 129-5], for which the IC50 was 0.19 µM in assay [1]; over 7.5 µM in assay [2] (Homo sapiens, A549, 2 h); 0.087 µM in assay [3] (Homo sapiens, MIA PaCa-2, 2 h).

With `C=CC(=O)N1C[C@H](C)N(c2nc(=O)n(-c3c(C)ccnc3C(C)C)c3nc(-c4ccccc4NC(=O)C4CC4)c(Cl)cc23)C[C@H]1C` (atropisomer, axis not shown; (M)) [Example 129-6, (M)-N-[2-[6-Chloro-4-[(2S,5R)-2,5-dimethyl-4-prop-2-enoyl-piperazin-1-yl]-1-(2-isopropyl-4-methyl-3-pyridyl)-2-oxo-pyrido[2,3-d]pyrimidin-7-yl]phenyl]cyclopropanecarboxamide], the IC50 was 0.06 µM in assay [1]; over 7.5 µM in assay [2] (Homo sapiens, A549, 2 h); 0.058 µM in assay [3] (Homo sapiens, MIA PaCa-2, 2 h).

Regarding `C=CC(=O)N1C[C@H](C)N(c2nc(=O)n(-c3c(C)ccnc3C(C)C)c3nc(-c4ccccc4NC(=O)OC)c(Cl)cc23)C[C@H]1C` (atropisomer, axis not shown; (M)) [Example 129-7, (M)-Methyl-N-[2-[6-chloro-4-[(2S,5R)-2,5-dimethyl-4-prop-2-enoyl-piperazin-1-yl]-1-(2-isopropyl-4-methyl-3-pyridyl)-2-oxo-pyrido[2,3-d]pyrimidin-7-yl]phenyl]carbamate], the IC50 was 0.064 µM in assay [1]; over 7.5 µM in assay [2] (Homo sapiens, A549, 2 h); 0.025 µM in assay [3] (Homo sapiens, MIA PaCa-2, 2 h).

On to `C=CC(=O)N1C[C@H](C)N(c2nc(=O)n(-c3c(C)ccnc3C(C)C)c3nc(-c4c(F)cccc4NC(=O)OC)c(Cl)cc23)C[C@H]1C` (atropisomer, axis not shown; (M)) [Example 129-8, (M)-Methyl N-[2-[6-chloro-4-[(2S,5R)-2,5-dimethyl-4-prop-2-enoyl-piperazin-1-yl]-1-(2-isopropyl-4-methyl-3-pyridyl)-2-oxo-pyrido[2,3-d]pyrimidin-7-yl]-3-fluoro-phenyl]carbamate], for which the IC50 was 0.056 µM in assay [1]; over 7.5 µM in assay [2] (Homo sapiens, A549, 2 h); 0.023 µM in assay [3] (Homo sapiens, MIA PaCa-2, 2 h).

In the case of `C=CC(=O)N1C[C@H](C)N(c2nc(=O)n(-c3c(C)ccnc3C(C)C)c3nc(-c4c(F)cccc4NC(=O)C4CC4)c(Cl)cc23)C[C@H]1C` (atropisomer, axis not shown; (M)) [Example 129-9, (M)-N-[2-[6-Chloro-4-[(2S,5R)-2,5-dimethyl-4-prop-2-enoyl-piperazin-1-yl]-1-(2-isopropyl-4-methyl-3-pyridyl)-2-oxo-pyrido[2,3-d]pyrimidin-7-yl]-3-fluoro-phenyl]cyclopropanecarboxamide], the IC50 in assay [1] was 0.008 µM; in assay [2] (Homo sapiens, A549, 2 h), over 7.5 µM; in assay [3] (Homo sapiens, MIA PaCa-2, 2 h), 0.048 µM.

As for `C=CC(=O)N1C[C@H](C)N(c2nc(=O)n(-c3c(C)ccnc3C(C)C)c3nc(-c4c(F)cccc4NC(=O)C(F)F)c(Cl)cc23)C[C@H]1C` (atropisomer, axis not shown; (M)) [Example 129-10, (M)-N-[2-[6-Chloro-4-[(2S,5R)-2,5-dimethyl-4-prop-2-enoyl-piperazin-1-yl]-1-(2-isopropyl-4-methyl-3-pyridyl)-2-oxo-pyrido[2,3-d]pyrimidin-7-yl]-3-fluoro-phenyl]-2,2-difluoro-acetamide], the IC50 was 0.041 µM in assay [1]; over 7.5 µM in assay [2] (Homo sapiens, A549, 2 h); 0.049 µM in assay [3] (Homo sapiens, MIA PaCa-2, 2 h).

`C=CC(=O)N1C[C@H](C)N(c2nc(=O)n(-c3c(C)ccnc3C(C)C)c3nc(-c4ccccc4NC(=O)C(F)F)c(Cl)cc23)C[C@H]1C` (atropisomer, axis not shown; (M)) [Example 129-11, (M)-N-[2-[6-Chloro-4-[(2S,5R)-2,5-dimethyl-4-prop-2-enoyl-piperazin-1-yl]-1-(2-isopropyl-4-methyl-3-pyridyl)-2-oxo-pyrido[2,3-d]pyrimidin-7-yl]phenyl]-2,2-difluoro-acetamide]: the IC50 was 0.152 µM in assay [1]; over 7.5 µM in assay [2] (Homo sapiens, A549, 2 h); 0.247 µM in assay [3] (Homo sapiens, MIA PaCa-2, 2 h).

Take `C=CC(=O)N1C[C@H](C)N(c2nc(=O)n(-c3c(C)ccnc3C(C)C)c3nc(-c4cc(O)cc5ccccc45)c(Cl)cc23)C[C@H]1C` (atropisomer, axis not shown; (M)) [Example 132-1, (M)-6-Chloro-4-[(2S,5R)-2,5-dimethyl-4-prop-2-enoyl-piperazin-1-yl]-7-(3-hydroxy-1-naphthyl)-1-(2-isopropyl-4-methyl-3-pyridyl)pyrido[2,3-d]pyrimidin-2-one]: the IC50 in assay [1] is 0.053 µM; in assay [2], over 7.5 µM; in assay [3], 0.46 µM.

With `C=CC(=O)N1CCN(c2nc(=O)n(-c3c(C)ccnc3C(C)C)c3nc(-c4c(N)cccc4F)c(Cl)cc23)CC1CC#N` (atropisomer, axis not shown; (M)) [Example 144-1, (M)-2-[4-[7-(2-Amino-6-fluoro-phenyl)-6-chloro-1-(2-isopropyl-4-methyl-3-pyridyl)-2-oxo-pyrido[2,3-d]pyrimidin-4-yl]-1-prop-2-enoyl-piperazin-2-yl]acetonitrile], the IC50 in assay [1] was 0.166 µM; in assay [2], over 7.5 µM; in assay [3], 0.23 µM.

Take `C=CC(=O)N1CCN(c2nc(=O)n(-c3c(C)ccnc3C(C)C)c3nc(Cl)c(Cl)cc23)CC1CC#N` (atropisomer, axis not shown; (M)) [Example 144-2-2, (M)-2-[4-[6,7-Dichloro-1-(2-isopropyl-4-methyl-3-pyridyl)-2-oxo-pyrido[2,3-d]pyrimidin-4-yl]-1-prop-2-enoyl-piperazin-2-yl]acetonitrile]: the concentration for half-maximal inhibition (IC50) in assay [1] turned out to be 9.13 µM; in assay [2] (Homo sapiens, A549, 2 h), 4 µM; in assay [3] (Homo sapiens, MIA PaCa-2, 2 h) it was 3.1 µM.

Take `C=CC(=O)N1CCN(c2nc(=O)n(-c3c(C)ccnc3C(C)C)c3nc(-c4c(O)cccc4F)c(Cl)cc23)CC1CC#N` (atropisomer, axis not shown; (M)) [Example 144-3, (M)-2-[4-[6-Chloro-7-(2-fluoro-6-hydroxy-phenyl)-1-(2-isopropyl-4-methyl-3-pyridyl)-2-oxo-pyrido[2,3-d]pyrimidin-4-yl]-1-prop-2-enoyl-piperazin-2-yl]acetonitrile]: the IC50 in assay [1] was 0.166 µM; in assay [2] (Homo sapiens, A549, 2 h), over 7.5 µM; in assay [3] (Homo sapiens, MIA PaCa-2, 2 h) it was 2.41 µM.

As for `C=CC(=O)N1CCN(c2nc(=O)n(-c3c(C)ccnc3C(C)C)c3nc(-c4ccccc4F)c(Cl)cc23)CC1CC#N` (atropisomer, axis not shown; (M)) [Example 145-2, (M)-2-[4-[6-Chloro-7-(2-fluorophenyl)-1-(2-isopropyl-4-methyl-3-pyridyl)-2-oxo-pyrido[2,3-d]pyrimidin-4-yl]-1-prop-2-enoyl-piperazin-2-yl]acetonitrile], the IC50 in assay [1] was 0.344 µM; in assay [2] (Homo sapiens, A549, 2 h), over 7.5 µM; in assay [3], 1.68 µM.
